Results reported in patent publication US11634447B2 (priority 2012, dated 2023).

System: bacterial strain LF82 binding to the glycoprotein BSA-(Mannose)3
Test: Bacterial Binding Assay (BBA)
Assay type: cell-based, Escherichia coli
Settings: read-out: Bacterial Binding Assay IC50, LF82/Luciferase strain binding to BSA-(Man)3 coated plates, luminescence
In short: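 Inhibition of LF82/luciferase E. coli adhesion is read as luminescence after washing off unbound cells. Compound and bacteria (10^7 per well) are co-incubated 40-75 min at room temperature on wells coated with 0.5-2 μg/mL BSA-(Man)3, with BSA-only wells as background; IC50 values derived.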

Row | Compound | IC50 [nM]
1 | OC[C@H]1O[C@H](C#Cc2ccc3c(c2)C(O)c2cc(C#C[C@H]4O[C@H](CO)[C@@H](O)[C@H](O)[C@@H]4O)ccc2-3)[C@@H](O)[C@@H](O)[C@@H]1O (stereo partly drawn) [Compound 195, (2R,3S,4R,5S,6R)-2-(hydroxymethyl)-6-[2-[9-hydroxy-7-[2-[(2R,3S,4R,5S,6R)-3,4,5-trihydroxy-6-(hydroxymethyl)tetrahydropyran-2-yl]ethynyl]-9H-fluoren-2-yl]ethynyl]tetrahydropyran-3,4,5-triol] | 18
2 | CN(C)C(=O)Cn1c2cc(C#C[C@H]3O[C@H](CO)[C@@H](O)[C@H](O)[C@@H]3O)ccc2c2ccc(C#C[C@H]3O[C@H](CO)[C@@H](O)[C@H](O)[C@@H]3O)cc21 [Compound 181, 2-[2,7-bis[2-[(2R,3S,4R,5S,6R)-3,4,5-trihydroxy-6-(hydroxymethyl)tetrahydropyran-2-yl]ethynyl]carbazol-9-yl]-N,N-dimethyl-acetamide] | 10
3 | Cc1cc(-c2ccc([C@H]3O[C@H](CO)[C@@H](O)[C@H](O)[C@@H]3O)cc2F)ccc1[C@H]1O[C@H](CO)[C@@H](O)[C@H](O)[C@@H]1O [Compound 150, (2R,2,3S,3,4R,4,5S,5,6R,6)-6,6(2-fluoro-3methyl-[1,1biphenyl]-4,4diyl)bis(2-(hydroxymethyl)tetrahydro-2H-pyran-3,4,5-triol)] | 71
4 | OC[C@H]1O[C@H](C#Cc2ccc3c(c2)C2(CCC(O)CC2)c2cc(C#C[C@H]4O[C@H](CO)[C@@H](O)[C@H](O)[C@@H]4O)ccc2-3)[C@@H](O)[C@@H](O)[C@@H]1O (stereo partly shown) [Compound 203] | 0.04
5 | Cc1cc(C#Cc2ccc([C@H]3O[C@H](CO)[C@@H](O)[C@H](O)[C@@H]3O)c(C)c2)ccc1[C@H]1O[C@H](CO)[C@@H](O)[C@H](O)[C@@H]1O [Compound 152, (2R,3S,4R,5S,6R)-2-(hydroxymethyl)-6-[2-methyl-4-[2-[3-methyl-4-[(2R,3S,4R,5S,6R)-3,4,5-trihydroxy-6-(hydroxymethyl)tetrahydropyran-2-yl]phenyl]ethynyl]phenyl]tetrahydropyran-3,4,5-triol] | 31
6 | OC[C@H]1O[C@H](C#Cc2ccc(C#C[C@H]3O[C@H](CO)[C@@H](O)[C@H](O)[C@@H]3O)c(OC(F)F)c2)[C@@H](O)[C@@H](O)[C@@H]1O [Compound 92, (2R,3S,4R,5S,6R)-2-[2-[3-(difluoromethoxy)-4-[2-[(2R,3S,4R,5S,6R)-3,4,5-trihydroxy-6-(hydroxymethyl)tetrahydropyran-2-yl]ethynyl]phenyl]ethynyl]-6-(hydroxymethyl)tetrahydropyran-3,4,5-triol] | 36
7 | CC(C)(C)C(=O)N1CCC2(CC1)c1cc(C#C[C@H]3O[C@H](CO)[C@@H](O)[C@H](O)[C@@H]3O)ccc1-c1ccc(C#C[C@H]3O[C@H](CO)[C@@H](O)[C@H](O)[C@@H]3O)cc12 [Compound 228, 1-[2,7-bis[2-[(2R,3S,4R,5S,6R)-3,4,5-trihydroxy-6-(hydroxymethyl)tetrahydropyran-2-yl]ethynyl]spiro[fluorene-9,4piperidine]-1yl]-2,2-dimethyl-propan-l-one] | 0.44
8 | OC[C@H]1O[C@H](C#Cc2cc3cc(C#C[C@H]4O[C@H](CO)[C@@H](O)[C@H](O)[C@@H]4O)sc3s2)[C@@H](O)[C@@H](O)[C@@H]1O [Compound 123, (2R,3S,4R,5S,6R)-2-(hydroxymethyl)-6-[2-[5-[2-[(2R,3S,4R,5S,6R)-3,4,5-trihydroxy-6-(hydroxymethyl)tetrahydropyran-2-yl]ethynyl]thieno[2,3-b]thiophen-2-yl]ethynyl]tetrahydropyran-3,4,5-triol] | 41
9 | OC[C@H]1O[C@H](c2ccc(-c3ccc([C@H]4O[C@H](CO)[C@@H](O)[C@H](O)[C@@H]4O)cc3F)cc2)[C@@H](O)[C@@H](O)[C@@H]1O [Compound 62] | 67
10 | Cn1ccc(C(=O)c2c(C#C[C@H]3O[C@H](CO)[C@@H](O)[C@H](O)[C@@H]3O)ccc3c2C2(CCNCC2)c2cc(C#C[C@H]4O[C@H](CO)[C@@H](O)[C@H](O)[C@@H]4O)ccc2-3)n1 [Compound 238, [2,7-bis[2-[(2R,3S,4R,5S,6R)-3,4,5-trihydroxy-6-(hydroxymethyl)tetrahydropyran-2-yl]ethynyl]spiro[fluorene-9,4piperidine]-1yl]-(1-methylpyrazol-3-yl)methanone] | 0.09
11 | Cc1cccc(C(=O)c2c(C#C[C@H]3O[C@H](CO)[C@@H](O)[C@H](O)[C@@H]3O)ccc3c2C2(CCNCC2)c2cc(C#C[C@H]4O[C@H](CO)[C@@H](O)[C@H](O)[C@@H]4O)ccc2-3)n1 [Compound 239, [2,7-bis[2-[(2R,3S,4R,5S,6R)-3,4,5-trihydroxy-6-(hydroxymethyl)tetrahydropyran-2-yl]ethynyl]spiro[fluorene-9,4piperidine]-1yl]-(6-methyl-2-pyridyl)methanone] | 0.35
12 | CCc1cc(C#C[C@H]2O[C@H](CO)[C@@H](O)[C@H](O)[C@@H]2O)ccc1C#C[C@H]1O[C@H](CO)[C@@H](O)[C@H](O)[C@@H]1O [Compound 98, (2R,3S,4R,5S,6R)-2-[2-[3-ethyl-4-[2-[(2R,3S,4R,5S,6R)-3,4,5-trihydroxy-6-(hydroxymethyl)tetrahydropyran-2-yl]ethynyl]phenyl]ethynyl]-6-(hydroxymethyl)tetrahydropyran-3,4,5-triol] | 12
13 | CN1CCN(C(=O)Cn2c3cc(C#C[C@H]4O[C@H](CO)[C@@H](O)[C@H](O)[C@@H]4O)ccc3c3ccc(C#C[C@H]4O[C@H](CO)[C@@H](O)[C@H](O)[C@@H]4O)cc32)CC1 [Compound 179, 2-[2,7-bis[2-[(2R,3S,4R,5S,6R)-3,4,5-trihydroxy-6-(hydroxymethyl)tetrahydropyran-2-yl]ethynyl]carbazol-9-yl]-1-(4-methylpiperazin-1-yl)ethanone] | 7.1
14 | O=C(Cn1c2cc(C#C[C@H]3O[C@H](CO)[C@@H](O)[C@H](O)[C@@H]3O)ccc2c2ccc(C#C[C@H]3O[C@H](CO)[C@@H](O)[C@H](O)[C@@H]3O)cc21)N1CCOCC1 [Compound 180, 2-[2,7-bis[2-[(2R,3S,4R,5S,6R)-3,4,5-trihydroxy-6-(hydroxymethyl)tetrahydropyran-2-yl]ethynyl]carbazol-9-yl]-1-morpholino-ethanone] | 5.5
15 | OC[C@H]1O[C@H](C#Cc2ccc(C#C[C@H]3O[C@H](CO)[C@@H](O)[C@H](O)[C@@H]3O)c(F)c2)[C@@H](O)[C@@H](O)[C@@H]1O [Compound 105, (2R,3S,4R,5S,6R)-2-[2-[3-fluoro-4-[2-[(2R,3S,4R,5S,6R)-3,4,5-trihydroxy-6-(hydroxymethyl)tetrahydropyran-2-yl]ethynyl]phenyl]ethynyl]-6-(hydroxymethyl)tetrahydropyran-3,4,5-triol] | 46
16 | CC(C)c1cc(C#C[C@H]2O[C@H](CO)[C@@H](O)[C@H](O)[C@@H]2O)c(C(C)C)cc1C#C[C@H]1O[C@H](CO)[C@@H](O)[C@H](O)[C@@H]1O [Compound 76] | 46
17 | COC(=O)Cc1cc(-c2cccc([C@H]3O[C@H](CO)[C@@H](O)[C@H](O)[C@@H]3O)c2)ccc1-c1cccc([C@H]2O[C@H](CO)[C@@H](O)[C@H](O)[C@@H]2O)c1 [Compound 140, Methyl 2-[2,5-bis[3-[(2R,3S,4R,5S,6R)-3,4,5-trihydroxy-6-(hydroxymethyl)tetrahydropyran-2-yl]phenyl]phenyl]acetate] | 353
18 | Cc1cc([C@H]2O[C@H](CO)[C@@H](O)[C@H](O)[C@@H]2O)ccc1-c1ccc([C@H]2O[C@H](CO)[C@@H](O)[C@H](O)[C@@H]2O)cc1 [Compound 63] | 112
19 | O=C1CCCN1CCn1c2cc(C#C[C@H]3O[C@H](CO)[C@@H](O)[C@H](O)[C@@H]3O)ccc2c2ccc(C#C[C@H]3O[C@H](CO)[C@@H](O)[C@H](O)[C@@H]3O)cc21 [Compound 190, 1-[2-[2,7-bis[2-[(2R,3S,4R,5S,6R)-3,4,5-trihydroxy-6-(hydroxymethyl)tetrahydropyran-2-yl]ethynyl]carbazol-9-yl]ethyl]pyrrolidin-2-one] | 1.1
20 | OC[C@H]1O[C@H](C#Cc2ccc3c(c2)C2(C[C@@H](O)[C@@H](O)C2)c2cc(C#C[C@H]4O[C@H](CO)[C@@H](O)[C@H](O)[C@@H]4O)ccc2-3)[C@@H](O)[C@@H](O)[C@@H]1O (stereo partly drawn) [Compound 194, (2R,3 S,4R,5S,6R)-2-[2-[(3R,4S)-3,4-Dihydroxy-7[2-[(2R,3 S,4R,5S,6R)-3,4,5-trihydroxy-6-(hydroxymethyl)tetrahydropyran-2-yl]ethynyl]spiro[cyclopentane-1,9fluorene]-2yl]ethynyl]-6-(hydroxymethyl)tetrahydropyran-3,4,5-triol] | 0.27
21 | OC[C@H]1O[C@H](C#Cc2ccc3c(c2)C2(CCOCC2)c2cc(C#C[C@H]4O[C@H](CO)[C@@H](O)[C@H](O)[C@@H]4O)ccc2-3)[C@@H](O)[C@@H](O)[C@@H]1O [Compound 162, (2R,2,3S,3,4R,4,5S,5,6R,6)-6,6((2tetrahydrospiro[fluorene-9,4pyran]-2,7-diyl)bis(ethyne-2,1-diyl))bis(2-(hydroxymethyl)tetrahydro-2H-pyran-3,4,5-triol)] | 0.11
22 | Cc1cc(C2CC2c2ccc([C@H]3O[C@H](CO)[C@@H](O)[C@H](O)[C@@H]3O)cc2)ccc1[C@H]1O[C@H](CO)[C@@H](O)[C@H](O)[C@@H]1O (stereo partly shown) [Compound 156] | 18
